Earlier results as cited in patent US12697339B2, “Composition and methods of treatment using synergistically-enhanced supplementation” (Xygenyx Inc., priority 2023, dated 2026).
Non-standard residues stand in square brackets, D forms with d. Residues, ends and D or L forms follow the SMILES beside them. Cit = NC(=O)NCCC[C@H](N)C(=O)O

Legend:
skin [1] = details: as penetration enhancer for transdermal drugs
[2] = studies using mice
[3] = tested on: wide dynamic range neurons in the ventroposterolateral nucleus of the thalamus; details: believed
[4] = in vivo
skin [5] = details: topical formulations, within four weeks of treatment
skin [6] = details: topical application, concentrations 0.5-5%
[7] = compared to α-tocopherol with biological activity factor 1.0
[8] = even when dietary intake occurs in equal portions
[9] = in vivo; remark: listed apart in the source

CC12CCC(CC1)C(C)(C)O2 [Eucalyptol]
factor of increase in drug uptake via the transdermal route (skin [1]): more than 10

CC(CN)C(=O)O [L-BAIBA, L-beta-aminoisobutyric acid]
tolerated dose [2]: 10-100 mg/kg of bodyweight

CC(C)[C@@H]1CC[C@@H](C)C[C@H]1O [Menthol]
factor of increase in drug uptake via the transdermal route (skin [1]): ≥ 10

CCCCCc1cc(O)c2c(c1)OC(C)(C)C1CCC(C)=CC21 (stereo not drawn) [THC, Δ-9-tetrahydrocannabinol]
power in mediating pain relative to morphine [3]: ten times more powerful than morphine

CCNC(=O)CC[C@H](N)C(=O)O [Theanine]
dose considered safe and well-tolerated [4]: up to 400 mg per day

CC[C@H](C)[C@H](NC(=O)[C@H](CC(=O)O)NC(=O)[C@@H](N)CCCCN)C(=O)N[C@@H](CCCNC(N)=O)C(N)=O [Tripeptide-10 citrulline] (H-KDI[Cit]-NH2)
improvement of suppleness (skin [5]): ≤ 54%

C=CCCCCCCCCC(=O)N[C@@H](Cc1ccccc1)C(=O)O [Undecylenoyl phenylalanine]
time of treatment to skin lightening effects (skin [6]): ≥ 7 days

Cc1c(C)c2c(c(C)c1O)CC[C@@](C)(CCC[C@H](C)CCC[C@H](C)CCCC(C)C)O2 [α-tocopherol]
reduction of risk of coronary disease (dietary supplementation, doses up to 400 IU/day): up to 34%
reduction of risk of developing neurodegenerative diseases such as Alzheimer's Syndrome or dementia (dietary supplementation, doses up to 400 IU/day, controlled trials): ≤ 24%
reduction in the development of age-related cataracts (in combination with 10-20 mg β-carotene and 400-500 mg vitamin C, doses around 400-500 IU): 23%

Cc1cc(O)c(C)c2c1O[C@](C)(CCC[C@H](C)CCC[C@H](C)CCCC(C)C)CC2 [β-tocopherol]
relative biological activity [7]: 0.5

Cc1c(O)cc2c(c1C)O[C@](C)(CCC[C@H](C)CCC[C@H](C)CCCC(C)C)CC2 [γ-tocopherol]
concentration in vivo relative to α-tocopherol [8]: roughly 10%
relative biological activity [7]: 0.1

Cc1cc(O)cc2c1O[C@](C)(CCC[C@H](C)CCC[C@H](C)CCCC(C)C)CC2 [δ-tocopherol]
relative biological activity [7]: 0.03

HGH: hormone comprising a peptide chain that is synthesized in the pituitary gland
biological half-life [9]: 10-20 minutes
